This is an account of results in ChEMBL document CHEMBL4321836, “Discovery of BAY-298 and BAY-899: Tetrahydro-1,6-naphthyridine-Based, Potent, and Selective Antagonists of the Luteinizing Hormone Receptor Which Reduce Sex Hormone Levels in Vivo” (J Med Chem, 2019).

Molecules are shown by their SMILES.

Data set [1] is described as follows: Apparent permeability across apical to basolateral side in human Caco2 cells at 2 uM after 2 hrs by LC-MS/MS analysis. It counts as ADME, cell-based. To be noted: Caco-2.
Data set [2] is described as follows: Clearance in human liver microsomes at 1 uM measured after 2 to 60 mins in presence of glucose-6-phosphate by LC-MS/MS analysis. It counts as ADME, Microsome.
The target of the next data set is Cytochrome P450 1A2 (Homo sapiens, UniProt P05177). The data set is described as follows: Inhibition of CYP1A2 in human liver microsomes using phenacetin as substrate by LC-MS/MS analysis. It counts as ADME. A general note: Microsomes from liver hold many membrane-bound enzymes, among them those of drug oxidation.
The nature of data set [3]: Tmax in Wistar rat at 2 mg/kg, po after 8 to 72 hrs by LC-MS/MS analysis. It counts as ADME, organism-based. Conditions: in vivo.
Data set [4] concerns the target T1, Adenosine receptor A3 (Homo sapiens) (UniProt P0DMS8).
T1 sequence (whole entry): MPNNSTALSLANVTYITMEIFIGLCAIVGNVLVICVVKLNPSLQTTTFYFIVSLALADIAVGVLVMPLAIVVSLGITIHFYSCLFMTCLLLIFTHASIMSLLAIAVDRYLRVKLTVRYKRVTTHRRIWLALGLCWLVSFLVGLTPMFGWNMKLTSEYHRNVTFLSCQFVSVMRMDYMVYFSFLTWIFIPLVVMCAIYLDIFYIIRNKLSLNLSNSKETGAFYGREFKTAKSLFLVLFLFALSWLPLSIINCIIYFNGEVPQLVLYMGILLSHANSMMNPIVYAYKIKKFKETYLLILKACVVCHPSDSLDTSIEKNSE
In words: Agonist activity at human A3 receptor expressed in CHO-K1 cells at 10 uM after 20 mins by HTRF assay relative to control. It counts as cell-based.

The target in data set [5] is Beta-1 adrenergic receptor (Homo sapiens) (UniProt P08588). The data set is described as follows: Agonist activity at human beta1 adrenergic receptor expressed in HEK293 cells at 10 uM after 30 mins HTRF assay relative to control. It counts as cell-based. For orientation: TR-FRET usually uses a lanthanide donor and a delayed reading to cut background.
Data set [6] has as its target D(2) dopamine receptor (Homo sapiens) (UniProt P14416). The data set is described as follows: Agonist activity at human Dopamine D2L receptor expressed in CHO-K1 cells at 10 uM by Fluorimetric analysis relative to control. It counts as cell-based.
The target of data set [7] is Histamine H3 receptor (Homo sapiens) (UniProt Q9Y5N1). The data set is described as follows: Antagonist activity at human histamine H3 receptor expressed in CHO-K1 cells at 10 uM after 10 mins by HTRF assay relative to control. It counts as cell-based. Details: scale not given: the % may be the effect or the level left.
Data set [8] concerns the target Motilin receptor (Homo sapiens) (UniProt O43193). In words: Agonist activity at human Motilin receptor expressed in CHO-K1 cells at 10 uM by fluorimetric method relative to control. It counts as cell-based.
In data set [9] the target is T2, Muscarinic acetylcholine receptor M1 (Homo sapiens) (UniProt P11229).
T2 sequence (whole entry): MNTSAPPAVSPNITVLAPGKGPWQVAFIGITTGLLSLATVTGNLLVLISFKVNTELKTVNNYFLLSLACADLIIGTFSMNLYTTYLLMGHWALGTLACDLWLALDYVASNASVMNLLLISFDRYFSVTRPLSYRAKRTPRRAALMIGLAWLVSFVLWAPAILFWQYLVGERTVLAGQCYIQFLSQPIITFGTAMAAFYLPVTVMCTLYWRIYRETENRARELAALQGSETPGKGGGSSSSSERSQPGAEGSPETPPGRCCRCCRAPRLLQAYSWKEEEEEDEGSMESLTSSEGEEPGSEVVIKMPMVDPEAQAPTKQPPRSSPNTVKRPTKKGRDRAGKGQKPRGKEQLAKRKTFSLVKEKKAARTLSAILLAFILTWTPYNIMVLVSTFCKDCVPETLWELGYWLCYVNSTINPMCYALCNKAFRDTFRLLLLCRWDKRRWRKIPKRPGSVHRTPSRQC
In words: Agonist activity at human muscarinic M1 receptor expressed in CHO-K1 cells at 10 uM by fluorimetric method relative to control. It counts as cell-based.

Data set [10] has as its target Substance-P receptor (Homo sapiens) (UniProt P25103). The data set is described as follows: Agonist activity at human NK1 receptor expressed in U373 MG cells at 10 uM by fluorimetric method relative to control. It counts as cell-based. To be noted: U-373MG ATCC.
Data set [11] concerns the target Kappa-type opioid receptor (Homo sapiens) (UniProt P41145). In words: Agonist activity at human kappa opioid receptor at 10 uM by Spectrophotometric method relative to control.
Data set [12] has as its target Mu-type opioid receptor (Homo sapiens) (UniProt P35372). In words: Antagonist activity at human mu opioid receptor expressed in CHO-K1 cells at 10 uM after 10 mins by HTRF assay relative to control. Details: scale not given: the % may be the effect or the level left. It counts as cell-based.
Data set [13] concerns the target T3, Prostaglandin E2 receptor EP3 subtype (Homo sapiens) (UniProt P43115).
T3 sequence (whole entry): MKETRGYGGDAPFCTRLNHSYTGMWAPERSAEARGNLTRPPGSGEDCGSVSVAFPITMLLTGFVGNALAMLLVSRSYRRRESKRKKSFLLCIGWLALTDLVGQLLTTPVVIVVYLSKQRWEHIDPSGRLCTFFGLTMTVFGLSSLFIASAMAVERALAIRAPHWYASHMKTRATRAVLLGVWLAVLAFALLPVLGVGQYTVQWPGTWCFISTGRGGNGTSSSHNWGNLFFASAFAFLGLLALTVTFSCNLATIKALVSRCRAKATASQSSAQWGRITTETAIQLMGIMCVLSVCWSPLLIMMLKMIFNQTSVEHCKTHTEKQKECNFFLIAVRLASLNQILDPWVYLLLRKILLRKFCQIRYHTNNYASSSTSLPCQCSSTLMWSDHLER
In words: Agonist activity at human EP3 receptor expressed in […] cells at 10 uM by spectrophotometric method relative to control. It counts as cell-based.

Data set [14] has as its target T4, 5-hydroxytryptamine receptor 1A (Homo sapiens) (UniProt P08908).
T4 sequence (whole entry): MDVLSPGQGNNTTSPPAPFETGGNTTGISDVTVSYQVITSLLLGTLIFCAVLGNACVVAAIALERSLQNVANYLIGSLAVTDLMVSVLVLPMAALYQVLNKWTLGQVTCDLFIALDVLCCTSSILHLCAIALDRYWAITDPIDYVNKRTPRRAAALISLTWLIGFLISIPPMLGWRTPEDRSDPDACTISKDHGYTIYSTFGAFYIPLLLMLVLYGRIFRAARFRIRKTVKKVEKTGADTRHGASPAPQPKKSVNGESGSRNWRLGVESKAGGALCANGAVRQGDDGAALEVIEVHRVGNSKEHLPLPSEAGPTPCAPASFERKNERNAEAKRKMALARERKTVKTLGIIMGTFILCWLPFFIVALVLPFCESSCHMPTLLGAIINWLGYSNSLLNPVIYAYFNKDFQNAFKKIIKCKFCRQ
The data set is described as follows: Antagonist activity at human 5-HT1A receptor expressed in mouse BA/F3 cells at 10 uM by fluorimetric method relative to control. It counts as cell-based. Further details: scale not given: the % may be the effect or the level left.

For data set [15], the target named is 5-hydroxytryptamine receptor 2B (Homo sapiens) (UniProt P41595). The data set is described as follows: Agonist activity at human 5-HT2B receptor expressed in CHO-K1 cells at 10 uM after 30 mins by HTRF assay relative to control. It counts as cell-based.
In data set [16] the target is 5-hydroxytryptamine receptor 6 (Homo sapiens) (UniProt P50406). In words: Antagonist activity at human 5-HT6 receptor expressed in CHO-K1 cells at 10 uM after 30 mins by HTRF assay relative to control. Details: scale not given: the % may be the effect or the level left. It counts as cell-based.
Data set [17] has as its target Somatostatin receptor type 4 (Homo sapiens) (UniProt P31391). In words: Antagonist activity at human sst4 expressed in CHO-K1 cells at 10 uM after 10 mins by HTRF assay relative to control. It counts as cell-based. Further details: scale not given: the % may be the effect or the level left.

Sequence of Substance-P receptor (Homo sapiens) (P25103 whole entry): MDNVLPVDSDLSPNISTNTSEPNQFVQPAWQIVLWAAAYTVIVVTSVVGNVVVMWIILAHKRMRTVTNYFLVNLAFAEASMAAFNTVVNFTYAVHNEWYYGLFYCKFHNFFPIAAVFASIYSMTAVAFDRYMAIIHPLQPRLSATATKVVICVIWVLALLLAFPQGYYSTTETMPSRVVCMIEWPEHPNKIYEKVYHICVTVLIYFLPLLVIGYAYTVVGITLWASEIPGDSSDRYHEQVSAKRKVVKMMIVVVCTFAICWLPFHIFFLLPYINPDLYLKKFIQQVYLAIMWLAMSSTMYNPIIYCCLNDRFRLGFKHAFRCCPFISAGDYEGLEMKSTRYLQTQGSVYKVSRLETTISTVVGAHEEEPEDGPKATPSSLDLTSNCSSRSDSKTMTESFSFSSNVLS
Sequence of Motilin receptor (Homo sapiens) (O43193 whole entry): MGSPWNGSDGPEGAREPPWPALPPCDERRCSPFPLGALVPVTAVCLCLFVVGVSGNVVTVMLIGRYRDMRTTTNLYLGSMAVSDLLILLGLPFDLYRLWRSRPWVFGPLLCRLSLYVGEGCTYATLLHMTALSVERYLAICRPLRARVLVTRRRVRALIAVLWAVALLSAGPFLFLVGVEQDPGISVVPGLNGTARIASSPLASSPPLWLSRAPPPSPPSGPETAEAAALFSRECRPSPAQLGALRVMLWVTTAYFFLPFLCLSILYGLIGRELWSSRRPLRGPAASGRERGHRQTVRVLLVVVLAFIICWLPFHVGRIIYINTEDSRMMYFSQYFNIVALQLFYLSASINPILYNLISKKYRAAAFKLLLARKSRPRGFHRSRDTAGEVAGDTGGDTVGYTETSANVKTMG
Sequence of Somatostatin receptor type 4 (Homo sapiens) (P31391 whole entry): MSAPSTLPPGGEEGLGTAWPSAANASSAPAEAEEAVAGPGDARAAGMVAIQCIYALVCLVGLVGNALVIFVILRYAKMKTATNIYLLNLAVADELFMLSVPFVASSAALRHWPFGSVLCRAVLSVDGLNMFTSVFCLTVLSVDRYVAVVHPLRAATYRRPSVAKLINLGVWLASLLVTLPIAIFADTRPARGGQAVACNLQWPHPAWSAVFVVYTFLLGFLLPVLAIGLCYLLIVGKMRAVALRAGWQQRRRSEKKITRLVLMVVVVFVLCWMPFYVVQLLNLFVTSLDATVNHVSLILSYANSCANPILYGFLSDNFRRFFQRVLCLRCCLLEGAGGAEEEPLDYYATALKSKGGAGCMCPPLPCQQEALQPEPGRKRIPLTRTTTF
Sequence of 5-hydroxytryptamine receptor 6 (Homo sapiens) (P50406 whole entry): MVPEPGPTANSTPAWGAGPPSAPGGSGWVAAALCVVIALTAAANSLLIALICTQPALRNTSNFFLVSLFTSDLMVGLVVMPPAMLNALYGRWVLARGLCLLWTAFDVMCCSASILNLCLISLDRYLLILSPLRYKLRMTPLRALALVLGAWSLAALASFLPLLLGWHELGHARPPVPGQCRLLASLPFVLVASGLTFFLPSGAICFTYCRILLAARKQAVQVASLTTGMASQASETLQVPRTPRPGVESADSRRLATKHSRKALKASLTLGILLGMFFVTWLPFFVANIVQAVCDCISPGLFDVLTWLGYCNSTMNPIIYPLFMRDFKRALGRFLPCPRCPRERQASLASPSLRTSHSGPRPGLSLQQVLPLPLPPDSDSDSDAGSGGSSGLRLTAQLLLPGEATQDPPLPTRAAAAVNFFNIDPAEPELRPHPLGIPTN
Sequence of Beta-1 adrenergic receptor (Homo sapiens) (P08588 whole entry, looked up): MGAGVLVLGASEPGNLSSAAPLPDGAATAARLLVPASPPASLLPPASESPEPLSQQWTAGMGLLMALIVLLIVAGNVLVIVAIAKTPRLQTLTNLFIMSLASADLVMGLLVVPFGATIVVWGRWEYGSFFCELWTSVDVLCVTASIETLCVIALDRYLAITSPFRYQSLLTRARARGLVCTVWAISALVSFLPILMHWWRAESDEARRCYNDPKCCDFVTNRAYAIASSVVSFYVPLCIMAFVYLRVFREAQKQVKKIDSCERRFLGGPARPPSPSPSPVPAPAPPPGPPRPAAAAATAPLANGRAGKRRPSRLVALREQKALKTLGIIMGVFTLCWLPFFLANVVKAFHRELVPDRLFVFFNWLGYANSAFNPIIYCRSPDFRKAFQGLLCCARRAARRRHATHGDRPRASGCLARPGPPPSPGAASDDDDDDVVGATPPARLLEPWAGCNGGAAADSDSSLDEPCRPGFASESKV
Sequence of Kappa-type opioid receptor (Homo sapiens) (P41145 whole entry): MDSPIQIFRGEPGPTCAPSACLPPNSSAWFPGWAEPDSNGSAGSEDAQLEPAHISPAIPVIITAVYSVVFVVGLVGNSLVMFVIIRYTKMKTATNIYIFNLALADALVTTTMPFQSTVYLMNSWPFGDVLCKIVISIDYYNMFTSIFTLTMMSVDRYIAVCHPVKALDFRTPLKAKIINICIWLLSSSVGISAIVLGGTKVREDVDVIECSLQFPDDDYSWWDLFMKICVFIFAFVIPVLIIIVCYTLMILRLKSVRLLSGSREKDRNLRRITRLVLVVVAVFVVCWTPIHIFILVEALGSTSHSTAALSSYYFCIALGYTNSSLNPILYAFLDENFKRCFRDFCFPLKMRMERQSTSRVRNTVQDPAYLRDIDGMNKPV
Sequence of Histamine H3 receptor (Homo sapiens) (Q9Y5N1 whole entry): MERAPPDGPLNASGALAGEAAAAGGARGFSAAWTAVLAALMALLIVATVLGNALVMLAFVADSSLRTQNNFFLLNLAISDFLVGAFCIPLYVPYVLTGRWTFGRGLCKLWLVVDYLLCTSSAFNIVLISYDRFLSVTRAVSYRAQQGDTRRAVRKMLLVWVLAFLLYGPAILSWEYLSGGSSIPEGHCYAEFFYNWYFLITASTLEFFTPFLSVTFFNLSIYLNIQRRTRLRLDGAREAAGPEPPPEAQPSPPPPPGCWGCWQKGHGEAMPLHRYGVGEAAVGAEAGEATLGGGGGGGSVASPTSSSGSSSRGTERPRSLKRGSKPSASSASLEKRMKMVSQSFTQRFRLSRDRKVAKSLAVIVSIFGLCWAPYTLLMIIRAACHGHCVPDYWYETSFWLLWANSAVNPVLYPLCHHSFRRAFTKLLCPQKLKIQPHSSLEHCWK
Sequence of Mu-type opioid receptor (Homo sapiens) (P35372 whole entry): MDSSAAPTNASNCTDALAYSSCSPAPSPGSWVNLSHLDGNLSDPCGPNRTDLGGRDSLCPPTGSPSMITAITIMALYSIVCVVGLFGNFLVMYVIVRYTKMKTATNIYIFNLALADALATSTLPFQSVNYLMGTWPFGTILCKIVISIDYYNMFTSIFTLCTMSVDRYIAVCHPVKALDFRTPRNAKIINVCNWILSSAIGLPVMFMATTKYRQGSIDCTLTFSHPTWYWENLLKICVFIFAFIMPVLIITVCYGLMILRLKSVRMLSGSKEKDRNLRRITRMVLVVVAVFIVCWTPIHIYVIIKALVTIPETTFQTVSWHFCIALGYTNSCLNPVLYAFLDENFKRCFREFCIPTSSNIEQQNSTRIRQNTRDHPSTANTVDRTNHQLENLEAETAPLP
Sequence of Cytochrome P450 1A2 (P05177 whole entry): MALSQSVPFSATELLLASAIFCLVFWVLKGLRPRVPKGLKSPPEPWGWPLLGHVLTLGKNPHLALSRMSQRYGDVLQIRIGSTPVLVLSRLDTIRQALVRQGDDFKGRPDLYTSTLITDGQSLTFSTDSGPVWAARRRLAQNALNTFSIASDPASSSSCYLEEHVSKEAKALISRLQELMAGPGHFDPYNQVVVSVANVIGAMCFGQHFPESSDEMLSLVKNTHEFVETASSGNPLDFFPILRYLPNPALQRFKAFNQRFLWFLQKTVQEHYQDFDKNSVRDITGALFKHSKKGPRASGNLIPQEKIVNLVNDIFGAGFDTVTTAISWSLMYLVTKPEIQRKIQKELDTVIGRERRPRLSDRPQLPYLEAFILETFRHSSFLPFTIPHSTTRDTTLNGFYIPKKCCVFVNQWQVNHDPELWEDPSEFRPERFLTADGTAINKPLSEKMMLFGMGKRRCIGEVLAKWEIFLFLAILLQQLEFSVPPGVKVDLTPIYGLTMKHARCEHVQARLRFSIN
Sequence of D(2) dopamine receptor (Homo sapiens) (P14416 whole entry): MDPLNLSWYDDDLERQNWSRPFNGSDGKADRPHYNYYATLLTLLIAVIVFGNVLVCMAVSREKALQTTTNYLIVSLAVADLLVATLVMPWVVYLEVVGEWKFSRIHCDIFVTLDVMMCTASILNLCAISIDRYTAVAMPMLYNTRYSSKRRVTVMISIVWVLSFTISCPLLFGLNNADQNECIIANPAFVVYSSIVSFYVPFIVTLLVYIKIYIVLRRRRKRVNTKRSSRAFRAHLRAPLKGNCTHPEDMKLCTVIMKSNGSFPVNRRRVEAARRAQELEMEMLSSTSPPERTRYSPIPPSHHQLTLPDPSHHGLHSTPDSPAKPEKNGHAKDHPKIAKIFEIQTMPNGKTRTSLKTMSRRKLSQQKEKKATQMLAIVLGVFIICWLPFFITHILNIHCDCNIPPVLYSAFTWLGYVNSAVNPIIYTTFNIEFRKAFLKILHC
Sequence of 5-hydroxytryptamine receptor 2B (Homo sapiens) (P41595 whole entry): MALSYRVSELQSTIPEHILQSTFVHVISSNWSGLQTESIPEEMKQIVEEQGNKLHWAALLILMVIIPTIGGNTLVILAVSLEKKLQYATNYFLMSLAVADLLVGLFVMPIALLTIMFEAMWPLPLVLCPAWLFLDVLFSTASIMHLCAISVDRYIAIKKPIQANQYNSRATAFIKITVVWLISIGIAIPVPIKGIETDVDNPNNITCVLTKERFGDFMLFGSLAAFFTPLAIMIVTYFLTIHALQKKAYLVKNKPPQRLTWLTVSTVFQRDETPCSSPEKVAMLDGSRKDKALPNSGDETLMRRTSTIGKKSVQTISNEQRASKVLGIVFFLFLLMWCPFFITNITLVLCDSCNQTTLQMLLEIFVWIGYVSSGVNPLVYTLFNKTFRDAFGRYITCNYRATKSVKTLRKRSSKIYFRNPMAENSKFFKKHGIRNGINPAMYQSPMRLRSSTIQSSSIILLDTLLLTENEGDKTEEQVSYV

The Papp A→B is the apparent permeability from the apical to the basolateral side of a cell layer. One may read the IC50 as the midpoint of a concentration-inhibition curve. A word on the Tmax: it is the time from dosing to the highest level. `O=C(Nc1ccc(Oc2ccc(F)cc2)cc1)N1CCc2ncccc2[C@@H]1c1ccc(Cl)cc1`: the Papp A→B at 2 h, 2 µM in data set [1] is 1.5 ×10⁻⁶ cm/s. For the same compound, the CLhep predicted at 1 µM in data set [2] is 3.33 mL/min/kg. On Cytochrome P450 1A2, the IC50 was more than 20 µM. The Tmax in [3] stood at 24 h. The Activity in data set [4], in data set [5], in data set [6], in [7], in data set [8] and in data set [9] was less than 70% each time. In addition, the Activity in data set [10], in data set [11], in data set [12], in [13], in data set [14] and in [15] was less than 70% each time. Besides, the Activity in data set [16] and in data set [17] was less than 70% in each case.
For `O=C(Nc1cnc(Oc2ccc(F)cc2)nc1)N1CCc2ncccc2[C@@H]1c1ccc(F)cc1` [BAY-899], the Papp A→B at 2 h, 2 µM in data set [1] came out at 8.9 ×10⁻⁶ cm/s. In data set [2], the CLhep predicted at 1 µM is 1.67 mL/min/kg. The same compound returned an IC50 against Cytochrome P450 1A2 of more than 20 µM. For the same compound, the Tmax in data set [3] is 8 h. In addition, the Activity in data set [4], in [5], in [6], in data set [7], in data set [8] and in [9] was less than 70% throughout. The Activity in [10], in [11], in [12], in data set [13], in data set [14] and in [15] was less than 70% each time. Besides, the Activity in [16] and in [17] was less than 70% in each case.
